From patent US20100197635A1, “TREATMENT OF TARDIVE DYSKINESIA WITH PYRIDOXAL 5'-PHOSPHATE” (Medicure International Inc., priority 2007, published 2010)
Where two headings read alike, the source gives them in different places.

Legend:
[1] = Phase I single ascending dose study, pharmacokinetics of P5P enteric-coated tablet; type: in vivo, healthy subjects; details: both sexes, human, fasting; for Cmax / Tmax / half-life: plasma, baseline-corrected; for AUC(0-t): baseline-corrected plasma P5P
Description: (§1) A Phase I, single center, single-dose, open-label, sequential ascending dose study to evaluate the safety and tolerance of pyridoxal-5′-phosphate, in an enteric-coated tablet, following a single dose of 250 mg, 750 mg, 1000 mg, and 4000 mg in healthy subjects under fasting conditions was conducted.
(§2) A total of 32 healthy, adult subjects signed the study-specific Informed Consent Form and were confined in the clinical study unit; of these subjects, 24 (6 subjects in each dose level; 3 males and 3 females) were dosed and were enrolled in the study; all of these enrolled subjects completed the study. Subjects were confined to the SFBC Anapharm Clinical Research Facility from at least 12 hours prior to drug administration until after the 24.0-hour post-dose blood draw.
Subjects were administered a single oral dose of study medication, as a 1×250 mg (Cohort 1), 3×250 mg (Cohort 2; total dose of 750 mg), 4×250 mg (Cohort 3; total dose of 1000 mg), or 16×250 mg (Cohort 4; total dose of 4000 mg) enteric-coated tablets.
After a supervised overnight fast of at least 10 hours, subjects were administered the medication as a single oral dose of 1, 3, 4, or 16 enteric-coated tablets containing 250 mg of P5P (total dose of 250mg, 750 mg, 1000 mg, or 4000 mg), with 300 mL of water. Subjects were dosed as specified in the protocol, and subsequently fasted for at least 4 hours.
The pharmacokinetic parameters to determine bioavailability for this study were: area under the concentration-time curve from time zero to time of last non-zero concentration (AUC0-t), maximum observed concentration (Cmax), time of observed Cmax (Tmax) and elimination half-life (equivalent to t1/2).

[2] = tested on: P2 purinoceptors; details: cited from earlier work
[3] = Phase I single ascending dose study, safety and tolerance of P5P enteric-coated tablet; type: in vivo, healthy subjects
Description: as §1, §2
Subjects enrolled in this study were members of the community at large. […] All participating subjects were judged eligible for the study when assessed against the inclusion and exclusion criteria. […]

[4] = tested on: Tardive Dyskinesia; experiment: Double blind, placebo controlled crossover study of P5P in tardive dyskinesia (Extrapyramidal Symptom Rating Scale); type: in vivo, patients
Description: A double blind, placebo controlled crossover study is conducted among patients with TD induced by the use of a neuroleptic medication. Patients are divided into 5 groups: control, Vitamin B6 treatment (400 mg), low dose of P5P (100 mg), medium dose of P5P (250 mg), and high dose of P5P (750 mg). All dosages are administered orally. Treatments are given daily.

[5] = unlikely to pose risks of adverse health effects in healthy people; cited from earlier work
[6] = tested on: Tardive Dyskinesia; details: 100-400 mg vitamin B6 per day, TD induced by schizophrenia medication; cited from earlier work

Structure (SMILES): Cc1ncc(COP(=O)(O)O)c(C=O)c1O [P5P, 3-hydroxy-2-methyl-5-[(phosphonooxy)methyl]-4-pyridine-carboxaldehyde]
- Cmax ([1]; single oral dose 250 mg): 300 ± 200 ng/mL
- Tmax ([1]; single oral dose 250 mg): 3.2 ± 1.3 h
- half-life ([1]; single oral dose 250 mg): 53.8 ± 41.9 h
- Cmax ([1]; single oral dose 750 mg): 3900 ± 5400 ng/mL
- Tmax ([1]; single oral dose 750 mg): 2.8 ± 0.9 h
- half-life ([1]; single oral dose 750 mg): 27.9 ± 19.5 h
- Cmax ([1]; single oral dose 1000 mg): 1500 ± 2300 ng/mL
- Tmax ([1]; single oral dose 1000 mg): 2.9 ± 1.4 h
- half-life ([1]; single oral dose 1000 mg): 36.2 ± 30.6 h
- Cmax ([1]; single oral dose 4000 mg): 1700 ± 2700 ng/mL
- Tmax ([1]; single oral dose 4000 mg): 4.7 ± 3.5 h
- half-life ([1]; single oral dose 4000 mg): 16.5 ± 16.5 h
- AUC(0-t) ([1]; single oral dose 250 mg): 2600 ± 1300 ng·h/mL
- AUC(0-t) ([1]; single oral dose 750 mg): 12800 ± 15400 ng·h/mL
- AUC(0-t) ([1]; single oral dose 1000 mg): 5900 ± 7700 ng·h/mL
- AUC(0-t) ([1]; single oral dose 4000 mg): 6900 ± 7400 ng·h/mL
- ATP induced calcium ion influx into cells [2]: inhibits
- tolerability ([3]; dosages up to 4000 mg): well tolerated
- side effects or evidence of toxicity ([3]; single oral doses 250, 750, 1000, 4000 mg): none of the patients presented any significant side effects or evidence of toxicity
- Extrapyramidal Symptom Rating Scale scores, medium or high dose compared to low dose group ([4]; P5P 250 mg or 750 mg vs 100 mg, orally daily): significantly improved scores
- Extrapyramidal Symptom Rating Scale scores, medium dose compared to high dose ([4]; P5P 250 mg vs 750 mg, orally daily): do not exhibit significantly different scores
- scores on the subscales of the Extrapyramidal Symptom Rating Scale (parkinsonism and dyskinetic movement scales) ([4]; P5P 100, 250 or 750 mg orally daily, compared to control or vitamin B6 (400 mg) groups): improved scores

Structure (SMILES): Cc1ncc(CO)c(CO)c1O [vitamin B6, pyridoxine]
- Tolerable Upper Intake Level [5]: 100 mg
- scores on the subscales of the Extrapyramidal Symptom Rating Scale (parkinsonism and dyskinetic movement scales) [6]: improved scores
